# Key:
# [1] = organism: Homo sapiens; assay: Selectivity index, ratio of IC50 for PI3Kalpha (unknown origin) to IC50 for PI3Kdelta (unknown origin)
# [2] = target: T1, Phosphatidylinositol 4,5-bisphosphate 3-kinase catalytic subunit delta isoform (Homo sapiens, UniProt O00329); assay: Inhibition of PI3Kdelta (unknown origin)
# T1 sequence (O00329 whole entry): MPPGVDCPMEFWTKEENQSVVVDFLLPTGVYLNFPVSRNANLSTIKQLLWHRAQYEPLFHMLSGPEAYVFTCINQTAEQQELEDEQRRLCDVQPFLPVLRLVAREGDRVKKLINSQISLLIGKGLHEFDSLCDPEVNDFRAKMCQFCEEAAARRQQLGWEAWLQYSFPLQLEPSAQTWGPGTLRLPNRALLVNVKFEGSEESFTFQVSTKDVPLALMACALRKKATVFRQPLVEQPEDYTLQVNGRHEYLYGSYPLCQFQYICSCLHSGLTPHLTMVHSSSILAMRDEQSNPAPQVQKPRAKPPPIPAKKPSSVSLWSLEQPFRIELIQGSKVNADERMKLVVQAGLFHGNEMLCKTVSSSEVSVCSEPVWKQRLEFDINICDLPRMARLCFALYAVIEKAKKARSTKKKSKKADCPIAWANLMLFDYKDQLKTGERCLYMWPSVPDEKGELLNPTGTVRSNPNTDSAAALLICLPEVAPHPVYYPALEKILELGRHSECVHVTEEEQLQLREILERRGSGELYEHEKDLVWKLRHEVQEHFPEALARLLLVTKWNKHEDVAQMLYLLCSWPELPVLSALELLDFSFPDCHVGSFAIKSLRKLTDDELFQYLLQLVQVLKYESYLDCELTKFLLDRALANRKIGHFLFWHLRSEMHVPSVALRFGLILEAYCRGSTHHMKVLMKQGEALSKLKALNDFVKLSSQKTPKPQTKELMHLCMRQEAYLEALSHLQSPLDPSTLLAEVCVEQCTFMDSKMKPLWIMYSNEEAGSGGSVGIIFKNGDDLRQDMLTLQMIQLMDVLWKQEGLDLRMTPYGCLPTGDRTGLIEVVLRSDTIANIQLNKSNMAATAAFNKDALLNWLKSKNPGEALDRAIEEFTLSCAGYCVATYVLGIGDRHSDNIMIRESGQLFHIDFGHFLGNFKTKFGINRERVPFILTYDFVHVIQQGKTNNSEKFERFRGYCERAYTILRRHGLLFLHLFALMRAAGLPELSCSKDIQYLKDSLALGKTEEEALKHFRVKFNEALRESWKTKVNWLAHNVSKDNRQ
# [3] = tested on: SU-DHL-6; assay: Antiproliferative activity against human SU-DHL-6 assessed as reduction in cell growth by MTS assay; format: functional, cell-based
# [4] = tested on: OCI-Ly10; assay: Antiproliferative activity against human OCILY10 assessed as reduction in cell growth by MTS assay; format: functional, cell-based
# [5] = target: Phosphatidylinositol 4,5-bisphosphate 3-kinase catalytic subunit gamma isoform (Homo sapiens, UniProt P48736); assay: Inhibition of PI3Kgamma (unknown origin)
# Chain of Phosphatidylinositol 4,5-bisphosphate 3-kinase catalytic subunit gamma isoform (P48736 whole entry, canonical isoform): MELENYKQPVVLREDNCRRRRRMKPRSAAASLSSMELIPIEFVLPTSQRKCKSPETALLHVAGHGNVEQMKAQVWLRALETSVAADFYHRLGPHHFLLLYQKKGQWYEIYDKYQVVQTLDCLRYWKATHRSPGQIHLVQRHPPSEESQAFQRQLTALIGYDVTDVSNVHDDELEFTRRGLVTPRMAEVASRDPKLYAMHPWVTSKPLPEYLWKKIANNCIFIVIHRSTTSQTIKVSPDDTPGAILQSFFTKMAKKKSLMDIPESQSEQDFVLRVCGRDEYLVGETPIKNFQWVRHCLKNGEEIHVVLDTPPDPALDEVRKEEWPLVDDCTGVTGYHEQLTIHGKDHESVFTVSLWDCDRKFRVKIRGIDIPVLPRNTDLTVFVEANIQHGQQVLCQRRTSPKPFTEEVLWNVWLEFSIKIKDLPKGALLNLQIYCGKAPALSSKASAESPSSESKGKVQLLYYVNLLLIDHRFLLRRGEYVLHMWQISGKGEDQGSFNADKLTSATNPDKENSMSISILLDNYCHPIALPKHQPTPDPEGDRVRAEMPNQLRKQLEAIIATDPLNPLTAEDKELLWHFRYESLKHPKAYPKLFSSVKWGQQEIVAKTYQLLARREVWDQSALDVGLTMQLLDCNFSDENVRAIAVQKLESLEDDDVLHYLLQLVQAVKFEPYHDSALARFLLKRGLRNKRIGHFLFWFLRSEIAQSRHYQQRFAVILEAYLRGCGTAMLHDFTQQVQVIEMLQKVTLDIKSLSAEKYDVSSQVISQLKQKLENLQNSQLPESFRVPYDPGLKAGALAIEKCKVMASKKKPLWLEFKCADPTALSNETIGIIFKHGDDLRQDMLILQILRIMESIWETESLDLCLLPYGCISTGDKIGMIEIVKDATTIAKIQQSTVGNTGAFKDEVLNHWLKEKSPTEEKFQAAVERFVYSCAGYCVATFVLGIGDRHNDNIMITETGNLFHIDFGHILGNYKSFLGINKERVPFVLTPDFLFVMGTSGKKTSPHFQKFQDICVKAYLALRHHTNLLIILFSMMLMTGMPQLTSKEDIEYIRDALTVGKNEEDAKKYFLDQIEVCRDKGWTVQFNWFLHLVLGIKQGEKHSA
# [6] = target: Phosphatidylinositol 4,5-bisphosphate 3-kinase catalytic subunit alpha isoform (Homo sapiens, UniProt P42336); assay: Inhibition of PI3Kalpha (unknown origin)
# Chain of Phosphatidylinositol 4,5-bisphosphate 3-kinase catalytic subunit alpha isoform (P42336 whole entry, canonical isoform): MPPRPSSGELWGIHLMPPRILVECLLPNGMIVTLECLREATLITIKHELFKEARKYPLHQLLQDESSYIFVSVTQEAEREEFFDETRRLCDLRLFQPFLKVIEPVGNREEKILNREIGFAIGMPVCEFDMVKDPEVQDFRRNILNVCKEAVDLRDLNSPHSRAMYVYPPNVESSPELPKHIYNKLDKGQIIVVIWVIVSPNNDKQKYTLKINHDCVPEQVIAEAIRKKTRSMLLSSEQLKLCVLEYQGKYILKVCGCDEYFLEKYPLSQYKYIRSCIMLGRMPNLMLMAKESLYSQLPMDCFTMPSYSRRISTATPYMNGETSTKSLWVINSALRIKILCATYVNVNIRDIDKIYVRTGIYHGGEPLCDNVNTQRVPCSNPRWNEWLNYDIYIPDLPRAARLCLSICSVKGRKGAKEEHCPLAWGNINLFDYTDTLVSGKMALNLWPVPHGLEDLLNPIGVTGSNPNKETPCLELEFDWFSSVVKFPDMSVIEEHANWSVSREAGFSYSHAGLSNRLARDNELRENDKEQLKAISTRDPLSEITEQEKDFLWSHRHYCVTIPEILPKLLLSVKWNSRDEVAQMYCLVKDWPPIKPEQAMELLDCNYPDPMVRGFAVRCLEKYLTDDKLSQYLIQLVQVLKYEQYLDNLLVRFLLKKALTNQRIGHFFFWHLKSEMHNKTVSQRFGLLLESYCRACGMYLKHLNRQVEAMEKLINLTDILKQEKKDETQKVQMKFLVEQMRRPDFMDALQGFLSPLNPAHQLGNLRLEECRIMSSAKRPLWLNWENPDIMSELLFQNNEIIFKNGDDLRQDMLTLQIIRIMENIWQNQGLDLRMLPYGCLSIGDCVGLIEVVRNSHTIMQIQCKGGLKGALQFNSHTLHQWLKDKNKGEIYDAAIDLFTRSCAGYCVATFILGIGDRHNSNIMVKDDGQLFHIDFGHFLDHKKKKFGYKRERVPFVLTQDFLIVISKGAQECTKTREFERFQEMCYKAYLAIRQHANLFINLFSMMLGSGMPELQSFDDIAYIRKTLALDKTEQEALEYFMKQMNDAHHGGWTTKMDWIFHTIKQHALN
# [7] = tested on: Vero; assay: Cytotoxicity against monkey Vero cells assessed as reduction in cell viability by MTS assay; format: cell-based; details: Chlorocebus sabaeus
# [8] = target: Phosphatidylinositol 4,5-bisphosphate 3-kinase catalytic subunit beta isoform (Homo sapiens, UniProt P42338); assay: Inhibition of PI3Kbeta (unknown origin)
# Chain of Phosphatidylinositol 4,5-bisphosphate 3-kinase catalytic subunit beta isoform (P42338 whole entry, canonical isoform): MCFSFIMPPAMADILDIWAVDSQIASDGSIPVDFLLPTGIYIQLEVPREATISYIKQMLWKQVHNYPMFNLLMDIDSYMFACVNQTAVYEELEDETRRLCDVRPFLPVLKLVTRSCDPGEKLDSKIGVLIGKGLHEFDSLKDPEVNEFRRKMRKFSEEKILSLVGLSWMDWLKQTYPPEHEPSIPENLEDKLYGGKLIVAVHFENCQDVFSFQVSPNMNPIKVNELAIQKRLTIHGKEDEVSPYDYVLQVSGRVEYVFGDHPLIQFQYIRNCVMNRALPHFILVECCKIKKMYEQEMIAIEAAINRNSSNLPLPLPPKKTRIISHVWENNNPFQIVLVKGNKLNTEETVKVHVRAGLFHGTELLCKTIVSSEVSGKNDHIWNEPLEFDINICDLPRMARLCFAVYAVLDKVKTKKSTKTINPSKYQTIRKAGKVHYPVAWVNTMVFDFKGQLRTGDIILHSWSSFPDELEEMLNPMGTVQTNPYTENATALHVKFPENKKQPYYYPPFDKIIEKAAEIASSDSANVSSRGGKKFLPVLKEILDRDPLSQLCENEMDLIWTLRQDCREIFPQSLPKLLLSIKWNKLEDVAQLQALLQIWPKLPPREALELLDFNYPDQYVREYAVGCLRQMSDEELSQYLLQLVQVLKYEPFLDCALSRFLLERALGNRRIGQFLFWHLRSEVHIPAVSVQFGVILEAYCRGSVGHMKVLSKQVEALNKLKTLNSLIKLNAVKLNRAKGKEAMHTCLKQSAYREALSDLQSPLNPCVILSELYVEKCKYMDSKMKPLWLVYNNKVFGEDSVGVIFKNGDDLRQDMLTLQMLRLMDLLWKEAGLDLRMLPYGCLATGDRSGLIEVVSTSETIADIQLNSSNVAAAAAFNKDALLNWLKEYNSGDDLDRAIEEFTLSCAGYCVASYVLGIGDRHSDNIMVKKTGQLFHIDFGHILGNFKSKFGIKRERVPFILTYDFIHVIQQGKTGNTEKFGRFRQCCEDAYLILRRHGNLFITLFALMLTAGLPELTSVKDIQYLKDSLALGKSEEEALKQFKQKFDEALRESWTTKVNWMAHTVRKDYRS
# [9] = tested on: HEK293; assay: Cytotoxicity against human HEK293 cells assessed as reduction in cell viability by MTS assay; format: cell-based
# [10] = tested on: L02; assay: Cytotoxicity against human L02 cells assessed as reduction in cell viability by MTS assay; format: cell-based
# [11] = tested on: JeKo-1; assay: Antiproliferative activity against human JeKo-1 assessed as reduction in cell growth by MTS assay; format: functional, cell-based
# [12] = tested on: OCI-Ly3; assay: Antiproliferative activity against human OCILY3 assessed as reduction in cell growth by MTS assay; format: functional, cell-based
Ratio IC50 [1],IC50 [2] [nM],Structure (SMILES),further results
49,2.5,CCc1nc2ccccc2n1-c1nc(N2CCOCC2)c2sc(CN3CCN(CC4CC4)C(=O)C3)cc2n1,
61,6.2,CCc1nc2ccccc2n1-c1nc(N2CCOCC2)c2sc(CN3CCN(C4CCOCC4)CC3=O)cc2n1,
56,4.8,CCc1nc2ccccc2n1-c1nc(N2CCOCC2)c2sc(CN3CCN(C4CCSCC4)CC3=O)cc2n1,
25,15,CCc1nc2ccccc2n1-c1nc(N2CCOCC2)c2sc(CN3CCN(C4CCN(C)CC4)CC3=O)cc2n1,
7.7,4.5,CCc1nc2ccccc2n1-c1nc(N2CCOCC2)c2sc(CN3CCN(C)CC3=O)cc2n1,
,1.1,CCc1nc2ccccc2n1-c1nc(N2CCOCC2)c2sc(CN3CCN(C(=O)C4CC4)CC3=O)cc2n1,IC50 [3]: 100 nM; IC50 [4]: 7600 nM; IC50 [5]: 185 nM; IC50 [6]: 84 nM; IC50 [7]: > 20000 nM; IC50 [8]: 137 nM; IC50 [9]: > 20000 nM; IC50 [10]: > 20000 nM; IC50 [11]: 190 nM; IC50 [12]: 2200 nM
95,2,CCc1nc2ccccc2n1-c1nc(N2CCOCC2)c2sc(CN3CCN(C(=O)C4CCCC4)CC3=O)cc2n1,
,2.1,CCc1nc2ccccc2n1-c1nc(N2CCOCC2)c2sc(CN3CCN(C4CCCC4)C(=O)C3)cc2n1,IC50 [3]: 180 nM; IC50 [4]: > 10000 nM; IC50 [5]: > 500 nM; IC50 [6]: 250 nM; IC50 [7]: > 20000 nM; IC50 [8]: > 500 nM; IC50 [9]: > 20000 nM; IC50 [10]: > 20000 nM; IC50 [11]: 170 nM; IC50 [12]: 2800 nM
25,6.2,CCc1nc2ccccc2n1-c1nc(N2CCOCC2)c2sc(CN3CCN(CC(N)=O)CC3=O)cc2n1,
10,2.2,CCc1nc2ccccc2n1-c1nc(N2CCOCC2)c2sc(CN3CCN(S(C)(=O)=O)CC3=O)cc2n1,
,1.4,CCc1nc2ccccc2n1-c1nc(N2CCOCC2)c2sc(CN3CCN(C(=O)C4CCC4)CC3=O)cc2n1,IC50 [3]: 80 nM; IC50 [4]: > 10000 nM; IC50 [5]: 303 nM; IC50 [6]: 117 nM; IC50 [7]: > 20000 nM; IC50 [8]: 165 nM; IC50 [9]: > 20000 nM; IC50 [10]: > 20000 nM; IC50 [11]: 120 nM; IC50 [12]: 1500 nM
49,3.6,CCc1nc2ccccc2n1-c1nc(N2CCOCC2)c2sc(CN3CCN(C(=O)[C@H](C)O)CC3=O)cc2n1,
38,1.2,CCc1nc2ccccc2n1-c1nc(N2CCOCC2)c2sc(CN3CCN(S(=O)(=O)C4CC4)CC3=O)cc2n1,
8,14,CCc1nc2ccccc2n1-c1nc(N2CCOCC2)c2sc(CN3CCN(C4CCC(N5CCCC5)CC4)CC3=O)cc2n1 (configuration not stated),
21,12,CCc1nc2ccccc2n1-c1nc(N2CCOCC2)c2sc(CN3CCN(C4CCCCC4)CC3=O)cc2n1,
43,2.9,C=CC(=O)N1CCN(Cc2cc3nc(-n4c(CC)nc5ccccc54)nc(N4CCOCC4)c3s2)C(=O)C1,
,2.9,CCc1nc2ccccc2n1-c1nc(N2CCOCC2)c2sc(CN3CCN(C4CCCC4)CC3=O)cc2n1,IC50 [3]: 530 nM; IC50 [4]: > 10000 nM; IC50 [5]: 370 nM; IC50 [6]: 243 nM; IC50 [7]: > 20000 nM; IC50 [8]: > 500 nM; IC50 [9]: > 20000 nM; IC50 [10]: > 20000 nM; IC50 [11]: 560 nM; IC50 [12]: 6900 nM
35,3.2,CCc1nc2ccccc2n1-c1nc(N2CCOCC2)c2sc(CN3CCN(C(C)=O)CC3=O)cc2n1,
43,7.9,CCc1nc2ccccc2n1-c1nc(N2CCOCC2)c2sc(CN3CCN(C(=O)C4CCCCC4)CC3=O)cc2n1,
71,3.8,CCc1nc2ccccc2n1-c1nc(N2CCOCC2)c2sc(CN3CCN(C4CCC(F)(F)CC4)CC3=O)cc2n1,
64,6.3,CCc1nc2ccccc2n1-c1nc(N2CCOCC2)c2sc(CN3CCN(CC4CC4)CC3=O)cc2n1,
,1.6,CCc1nc2ccccc2n1-c1nc(N2CCOCC2)c2sc(CN3CCN(C4CCC(=O)CC4)CC3=O)cc2n1,
7.1,12,CCc1nc2ccccc2n1-c1nc(N2CCOCC2)c2sc(CN3CCN(CC(N)=O)C(=O)C3)cc2n1,
52,12,CCc1nc2ccccc2n1-c1nc(N2CCOCC2)c2sc(CN3CCN(C(=O)OC(C)(C)C)CC3=O)cc2n1,

# More lines, now with the values behind:
Structure (SMILES),Ratio IC50 [1],IC50 [2] [nM],further results
CCc1nc2ccccc2n1-c1nc(N2CCOCC2)c2sc(CN3CCN(C4CCCC4)CC3)cc2n1,31,42,
CCc1nc2ccccc2n1-c1nc(N2CCOCC2)c2sc(CN3CCN(CC(=O)N4CCOCC4)C(=O)C3)cc2n1,11,15,
CCc1nc2ccccc2n1-c1nc(N2CCOCC2)c2sc(CN3CCN(C4CCC(N(C)C)CC4)CC3=O)cc2n1 (configuration not stated),36,14,
CCc1nc2ccccc2n1-c1nc(N2CCOCC2)c2sc(CN3CCN(C(C)C)CC3=O)cc2n1,53,2.1,
CCc1nc2ccccc2n1-c1nc(N2CCOCC2)c2sc(CN3CCNC(=O)C3)cc2n1,13,20,
CCc1nc2ccccc2n1-c1nc(N2CCOCC2)c2sc(CN3CCN([C@H]4CC[C@H](O)CC4)C(=O)C3)cc2n1,35,2.1,
CCc1nc2ccccc2n1-c1nc(N2CCOCC2)c2sc(CN3CCN(S(=O)(=O)CC)CC3=O)cc2n1,10,4.4,
C=CCN1CCN(Cc2cc3nc(-n4c(CC)nc5ccccc54)nc(N4CCOCC4)c3s2)C(=O)C1,,1.6,IC50 [3]: 570 nM; IC50 [4]: > 10000 nM; IC50 [5]: 266 nM; IC50 [6]: 295 nM; IC50 [7]: > 20000 nM; IC50 [8]: 232 nM; IC50 [9]: > 20000 nM; IC50 [10]: > 20000 nM; IC50 [11]: 470 nM; IC50 [12]: 8600 nM
CCc1nc2ccccc2n1-c1nc(N2CCOCC2)c2sc(CN3CCN(C)C(=O)C3)cc2n1,53,4.9,
CCc1nc2ccccc2n1-c1nc(N2CCOCC2)c2sc(CN3CCN(C4CCC5(CC4)OCCO5)CC3=O)cc2n1,13,2.2,
CCc1nc2ccccc2n1-c1nc(N2CCOCC2)c2sc(CN3CCN(S(=O)(=O)C4CC4)CC3)cc2n1,13,4.8,
CCc1nc2ccccc2n1-c1nc(N2CCOCC2)c2sc(CN3CCN(c4nccs4)C(=O)C3)cc2n1,7.7,2.1,
CCc1nc2ccccc2n1-c1nc(N2CCOCC2)c2sc(CN3CCN(CC(F)(F)F)CC3=O)cc2n1,32,6.3,
CCc1nc2ccccc2n1-c1nc(N2CCOCC2)c2sc(CN3CCN(CC)C(=O)C3)cc2n1,10,4.1,
CCc1nc2ccccc2n1-c1nc(N2CCOCC2)c2sc(CN3CCN(c4cccnc4)C(=O)C3)cc2n1,12,13,
CC[C@H](Nc1ncnc2[nH]cnc12)c1nc2cccc(F)c2c(=O)n1-c1ccccc1 [IDELALISIB],,,IC50 [3]: 120 nM; IC50 [4]: > 10000 nM; IC50 [7]: > 20000 nM; IC50 [9]: > 20000 nM; IC50 [10]: > 20000 nM; IC50 [11]: 120 nM; IC50 [12]: 5200 nM
CCc1nc2ccccc2n1-c1nc(N2CCOCC2)c2sc(CN3CCN(S(C)(=O)=O)CC3)cc2n1,2.4,4.1,
CCc1nc2ccccc2n1-c1nc(N2CCOCC2)c2sc(CN3CCN(C4CCC(O)CC4)C(=O)C3)cc2n1 (configuration not stated),7.7,5.7,
CCc1nc2ccccc2n1-c1nc(N2CCOCC2)c2sc(CN3CCN(c4cnn(C)c4)C(=O)C3)cc2n1,24,3.4,
CCCS(=O)(=O)N1CCN(Cc2cc3nc(-n4c(CC)nc5ccccc54)nc(N4CCOCC4)c3s2)C(=O)C1,4,3.5,

# Reference: ChEMBL document CHEMBL4725342, “Design, synthesis and structure-activity relationship study of piperazinone-containing thieno[3,2-d]pyrimidine derivatives as new PI3Kδ inhibitors” (Bioorg Med Chem Lett, 2020)
